{
  "source": "paper PMC10465358",
  "about": "(Nature Microbiology, 2023)",
  "key": {"[1]": {"molecular_target": "T1, P. bivia PulA (Prevotella bivia, UniProt I4Z8K5)", "T1 construct": "gene PrebiDRAFT_0808", "T1 sequence (I4Z8K5 23-637 limits assumed)": "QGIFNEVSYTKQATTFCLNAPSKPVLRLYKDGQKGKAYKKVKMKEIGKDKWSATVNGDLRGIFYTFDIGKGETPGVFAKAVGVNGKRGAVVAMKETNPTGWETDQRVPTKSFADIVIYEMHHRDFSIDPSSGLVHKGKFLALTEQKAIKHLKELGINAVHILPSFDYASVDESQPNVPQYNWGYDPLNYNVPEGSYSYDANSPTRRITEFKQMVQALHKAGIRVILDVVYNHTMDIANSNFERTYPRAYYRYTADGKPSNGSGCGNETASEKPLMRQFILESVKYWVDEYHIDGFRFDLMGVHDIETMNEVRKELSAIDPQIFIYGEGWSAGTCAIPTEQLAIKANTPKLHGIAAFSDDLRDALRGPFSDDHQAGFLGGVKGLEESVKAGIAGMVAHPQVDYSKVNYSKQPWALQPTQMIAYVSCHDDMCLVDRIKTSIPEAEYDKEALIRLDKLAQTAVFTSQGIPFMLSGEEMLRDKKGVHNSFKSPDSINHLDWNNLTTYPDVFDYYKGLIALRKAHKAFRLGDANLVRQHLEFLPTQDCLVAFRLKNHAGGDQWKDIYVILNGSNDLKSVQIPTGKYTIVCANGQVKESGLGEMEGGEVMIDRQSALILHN", "assay": "BODIPY fluorescent starch amylase assay with purified enzyme", "assay_type": "biochemical", "text": "BODIPY fluorescent starch amylase assay with purified enzyme on P. bivia PulA | Acarbose inhibited G. vaginalis PulA, P. bivia PulA and P. bivia GH13 enzymes"}, "[2]": {"molecular_target": "T2, G. vaginalis PulA (Gardnerella vaginalis, UniProt A0ACD7VVB6)", "T2 construct": "gene GAVG_1021; signal peptide removed, N-terminal His6 (pET28a, pETpullGV), E. coli ArcticExpress (DE3), 219 kDa, two alpha-amylase (GH13) domains (D233, D1317)", "T2 sequence (A0ACD7VVB6 34-2012)": "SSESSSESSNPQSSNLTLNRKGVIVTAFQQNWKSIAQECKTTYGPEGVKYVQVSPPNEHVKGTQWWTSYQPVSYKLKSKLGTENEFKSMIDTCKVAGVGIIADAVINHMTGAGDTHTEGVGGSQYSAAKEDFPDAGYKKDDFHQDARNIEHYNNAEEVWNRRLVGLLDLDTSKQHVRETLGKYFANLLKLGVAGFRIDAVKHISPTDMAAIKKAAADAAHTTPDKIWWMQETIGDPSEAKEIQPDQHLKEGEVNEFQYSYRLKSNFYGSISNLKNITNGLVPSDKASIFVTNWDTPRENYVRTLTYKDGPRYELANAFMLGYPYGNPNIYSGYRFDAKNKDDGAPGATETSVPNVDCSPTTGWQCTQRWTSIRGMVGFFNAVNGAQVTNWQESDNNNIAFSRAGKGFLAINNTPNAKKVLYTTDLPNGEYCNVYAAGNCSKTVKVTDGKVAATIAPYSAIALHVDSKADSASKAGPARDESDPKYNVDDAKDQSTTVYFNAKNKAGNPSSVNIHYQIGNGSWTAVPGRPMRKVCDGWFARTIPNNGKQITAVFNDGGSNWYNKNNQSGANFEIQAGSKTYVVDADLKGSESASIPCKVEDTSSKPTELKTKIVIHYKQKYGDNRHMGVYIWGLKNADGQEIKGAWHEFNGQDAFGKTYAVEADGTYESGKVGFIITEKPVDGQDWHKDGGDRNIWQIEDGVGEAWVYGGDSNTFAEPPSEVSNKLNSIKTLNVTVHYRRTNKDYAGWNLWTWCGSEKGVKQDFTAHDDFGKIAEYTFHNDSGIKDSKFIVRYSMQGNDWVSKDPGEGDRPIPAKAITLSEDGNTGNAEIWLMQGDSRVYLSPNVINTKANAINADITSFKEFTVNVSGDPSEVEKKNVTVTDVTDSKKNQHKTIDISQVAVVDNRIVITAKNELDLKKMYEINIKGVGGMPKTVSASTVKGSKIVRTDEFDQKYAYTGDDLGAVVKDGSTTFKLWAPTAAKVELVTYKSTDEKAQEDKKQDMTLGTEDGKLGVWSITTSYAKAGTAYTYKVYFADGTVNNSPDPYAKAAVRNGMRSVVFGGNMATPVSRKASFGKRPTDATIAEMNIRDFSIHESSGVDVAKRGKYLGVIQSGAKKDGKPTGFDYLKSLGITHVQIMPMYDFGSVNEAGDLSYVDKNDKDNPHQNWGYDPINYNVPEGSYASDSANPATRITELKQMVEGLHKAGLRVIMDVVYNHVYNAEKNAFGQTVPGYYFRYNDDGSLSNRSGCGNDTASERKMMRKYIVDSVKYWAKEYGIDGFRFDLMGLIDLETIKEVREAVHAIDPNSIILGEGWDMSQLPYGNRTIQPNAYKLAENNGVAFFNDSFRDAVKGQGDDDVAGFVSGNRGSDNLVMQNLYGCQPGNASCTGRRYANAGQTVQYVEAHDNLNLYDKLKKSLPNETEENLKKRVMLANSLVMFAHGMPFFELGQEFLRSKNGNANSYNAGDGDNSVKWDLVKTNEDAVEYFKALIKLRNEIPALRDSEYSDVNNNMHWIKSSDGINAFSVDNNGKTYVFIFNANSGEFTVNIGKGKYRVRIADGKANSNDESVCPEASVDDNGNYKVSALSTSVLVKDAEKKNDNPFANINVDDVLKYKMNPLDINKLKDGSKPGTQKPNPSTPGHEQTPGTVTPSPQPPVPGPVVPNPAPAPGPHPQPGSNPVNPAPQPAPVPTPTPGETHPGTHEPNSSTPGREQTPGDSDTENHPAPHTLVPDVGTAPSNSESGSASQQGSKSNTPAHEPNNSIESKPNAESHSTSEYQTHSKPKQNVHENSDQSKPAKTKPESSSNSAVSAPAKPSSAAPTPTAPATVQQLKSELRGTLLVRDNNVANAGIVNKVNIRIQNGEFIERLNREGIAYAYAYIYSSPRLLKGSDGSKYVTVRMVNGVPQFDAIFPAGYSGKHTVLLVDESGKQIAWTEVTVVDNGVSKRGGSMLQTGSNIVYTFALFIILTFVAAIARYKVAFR", "assay": "fluorescent (BODIPY) starch hydrolysis", "assay_type": "biochemical", "conditions": "BODIPY starch substrate; 15 min preincubation; 37 °C; pH not stated; error is 95% confidence interval", "text": "fluorescent (BODIPY) starch hydrolysis on G. vaginalis PulA | Acarbose inhibited G. vaginalis PulA, P. bivia PulA and P. bivia GH13 enzymes"}},
  "data": [
    {"smiles": "C[C@H]1O[C@H](O[C@H]2[C@H](O)[C@@H](O)[C@@H](O[C@H]3[C@H](O)[C@@H](O)C(O)O[C@@H]3CO)O[C@@H]2CO)[C@H](O)[C@@H](O)[C@@H]1N[C@H]1C=C(CO)[C@@H](O)[C@H](O)[C@H]1O", "note": "(some centres unmarked) [acarbose]", "values": [
      {"measurement": "IC50", "setting": "[1]", "result": "420 ± 90", "unit": "µM"},
      {"measurement": "IC50", "setting": "[2]", "result": "120 ± 30", "unit": "µM"}
    ]}
  ]
}
